From publication PMC12057336 (Antimicrobial Agents and Chemotherapy, 2025)
Like-named read-outs stand apart in the source and are kept apart here.

How the values were obtained:
primary rat hepatocytes = details: for substrate stability in control incubation: absence of hepatocytes; for substrate stability in control incubation / remaining percentage: 1 µM; for remaining percentage: freshly isolated normal rat hepatocytes; for remaining percentage / decrease of formation compared to normal rat hepatocytes: 6 h; for decrease of formation compared to normal rat hepatocytes: linezolid 1 µM
Protocol: Primary rat hepatocytes were isolated from normal, CCl4-induced, and 5/6 Nx rats according to the previously described two-step collagenase method ([36]). Rats were anesthetized with urethane (1 g/kg), their abdomens were opened, and their portal veins were cannulated with a needle. The liver was perfused with HBSS solution (without calcium and magnesium ions) containing 5 mM EGTA at a rate of 50–60 mL/min using a peristaltic pump until the blood in the liver was removed. HBSS solution containing 7.5 mg/50 mL collagenase was perfused for 20 min until the liver was completely softened and the surface collapsed. The liver was gently removed and placed in a precooled HBSS solution containing 10% FBS. Hepatocytes were eluted and centrifuged at 500 × g for 5 min, and the supernatant was removed to obtain primary rat hepatocytes. Isolated primary rat hepatocytes were washed three times and suspended in DMEM containing 10% FBS, 100 µg/mL streptomycin, 100 U/ml penicillin, and 10 µg/mL insulin at pH 7.65.
Freshly isolated rat hepatocytes at a density of 1.0 × 10^6 cells/well were placed in plates pre-coated with collagen and incubated for 18–24 h in a humidified incubator at 37°C and 5% CO2. […] Control incubations were performed in the absence of hepatocytes to test the substrate stability. Three replicate samples (1 mL each) were collected after 1, 2, 4, and 6 h of incubation. Then, 800 µL of methanol was immediately added, and the samples were transferred to a freezer (−20°C) to terminate metabolism. Hepatocytes were quickly washed three times with ice-cold HBSS and then lysed by the addition of 300 µL of purified water.
An AB Sciex 4000 Mass Spectrometer (AB Sciex, Framingham, MA, USA) and Shimadzu LC 20 series (Shimadzu, Kyoto, Japan) were used for HPLC-MS/MS. […] The Phenomenex Synergi Hydro-RP column (30 mm × 2 mm, 4 µm, Phenomenex Inc., Torrance, CA, USA) was used for chromatographic separation. The mobile phase consisted of 0.1% (vol/vol) formic acid in water (A) and 0.1% (vol/vol) formic acid in acetonitrile (B). The gradient conditions were as follows: 0–1.4 min, 15%–80% B; 1.4–1.8 min, 80% B; 1.8–1.81 min, return to 15% B; 1.81–2.1 min, equilibrium. The flow rate was 450 µL/min. Data acquisition and analysis were performed using the Analyst software (version 1.4.1, AB Sciex).
(§1) Atotal is the total cumulative amount excreted in urine over 24 h. D is the administered dose. The scale factor is 4,680 (10^6 cells/kg). All data are expressed as mean ± standard deviation (SD). Statistical analysis was performed using Student’s two-tailed unpaired t-test or nonparametric Mann-Whitney U test with SPSS Statistics 19.0 (SPSS Inc., Chicago, IL, USA). Statistical significance was set at P < 0.05.

[1] = Serum biochemical parameters of CCl4-induced rats; format: in vivo, rat
in vivo = details: rat, in vivo; for half-life: t1/2
Description: The control group rats were intraperitoneally injected with equal volumes of soybean oil. […] The upper and lower poles of the left kidney were removed under urethane anesthesia (1 g/kg; administered by i.p. injection). One week later, the right kidney was completely excised. Rats in the control group underwent a sham operation ([35]). Serum creatinine (CREA), blood urea nitrogen (BUN), aspartate aminotransferase (AST), alanine aminotransferase (ALT), alkaline phosphatase (ALP), lactate dehydrogenase (LDH), and total bilirubin (TBIL) levels were measured using commercial kits (Shanghai Enzyme-linked Biotechnology Co., Ltd., Shanghai, China) according to the protocols described by the manufacturer before pharmacokinetic experiments.
The rats were first divided into two groups: i.v. or i.g. administration groups. These two groups were further divided into the following four subgroups (n = 5): soybean oil-treated control rats, CCl4-induced rats, sham-operated control rats, and 5/6 Nx rats. […] Blood samples (200 µL) were collected from the retro-orbital venous plexus into heparinized tubes at 0 (pre-dose), 0.25, 0.5, 0.75, 1, 2, 3, 4, 6, 8, 12, and 24 h after i.g. administration, and at 0 (pre-dose), 0.083, 0.25, 0.5, 0.75, 1, 2, 3, 4, 6, 8, 12, and 24 h after i.v. administration. Plasma samples were separated by centrifugation at 6,000 × g for 5 min at 4°C and stored at −80°C until further analysis using HPLC.
Chromatographic separation was performed using the SinoPak BEH T-C18 column (4.6 mm × 150 mm, 5 µm, Hi-tech Zone, China) at 35°C. A photodiode array detector was set at a wavelength of 254 nm. The mobile phase consisted of 0.1% (vol/vol) formic acid in water (A) and acetonitrile (B). The gradient conditions were as follows: 0–4.0 min, 14%–86% B; 4.0–5.0 min, […]; 5.0–5.7 min, return to 14% B; 5.7–8.0 min, equilibrium. The flow rate was 1.0 mL/min.
Plasma and tissue homogenate samples (100 µL) were mixed with 10 µL of IS (50.0 mg/L) and 200 µL of acetonitrile, followed by vortex-mixing for 3 min. The mixture was centrifuged at 15,000 × g for 15 min at 4°C. Then, 5 µL of the supernatant was analyzed. The urine samples were diluted and directly injected for measurement.
The area under the plasma concentration-time curve from 0 to infinity (AUC0-∞), time to maximum concentration (tmax), Cmax, t1/2, CL, and Vd were calculated by non-compartmental model analysis using the Phoenix 8.1.0 WinNonlin software (Pharsight Corp, Princeton, NJ, USA). The renal clearance (CLr), in vitro hepatic clearance (CLint, in vitro), and bioavailability (F) were calculated using the following equations:
F (%) = Div×AUC0−∞, ig/Dig×AUC0−∞, iv
as §1

megakaryocytic cells = details: cited from earlier work
[2] = cited from earlier work
[3] = Tissue distribution after i.g. or i.v. linezolid in control, CCl4-induced and 5/6 Nx rats; format: in vivo, rat; details: after i.g. or i.v. linezolid; LLOQ 0.25 mg/L
Description: These two groups were further divided into the following three subgroups (n = 4): control rats, CCl4-induced rats, and 5/6 Nx rats. […] The rats were euthanized immediately after blood sampling. The brain, heart, lungs, liver, kidneys, and small intestine were collected. The collected tissues were washed and homogenized in normal saline (three-fold volume of each sample weight) using a multi-sample tissue grinder (Tissuelyser-48L; Shanghai Jingxin Industrial Development Co. Ltd., Shanghai, China). After centrifugation of the homogenate samples at 12,000 × g for 10 min at 4°C, the supernatants were stored at −80°C.
The flow rate was 1.0 mL/min.
Then, 5 µL of the supernatant was analyzed.

O=c1ccc2ccc(O)cc2o1 [7-hydroxycoumarin]
substrate stability in control incubation (primary rat hepatocytes): No reductions | remaining percentage (primary rat hepatocytes): < 5%

ClC(Cl)(Cl)Cl [CCl4, Carbon tetrachloride]
serum ALT relative to soybean oil-treated control rats [1]: 6.92 fold | serum AST relative to soybean oil-treated control rats [1]: 10.7 fold | serum LDH relative to soybean oil-treated control rats [1]: 1.86 fold | serum TBIL relative to soybean oil-treated control rats [1]: 8.40 fold | ALP ([1]; 2.5 mL/kg i.p., 24 h, serum): 257.1 ± 94.3 U/L | ALT ([1]; 2.5 mL/kg i.p., 24 h, serum): 418.8 ± 129.4 U/L | AST ([1]; 2.5 mL/kg i.p., 24 h, serum): 2399.5 ± 203.2 U/L | CREA ([1]; 2.5 mL/kg i.p., 24 h, serum): 17.1 ± 7.3 µmol/L | LDH ([1]; 2.5 mL/kg i.p., 24 h, serum): 2477.6 ± 220.8 U/L | TBTL ([1]; 2.5 mL/kg i.p., 24 h, serum): 4.2 ± 2.0 µmol/L

CC(=O)NC[C@H]1CN(c2ccc(N(CCO)CC(=O)O)c(F)c2)C(=O)O1 [PNU-142586]
decrease of CLr in comparison to sham-operated control rats (in vivo; Sprague-Dawley): 33.3% | share of the total plasma concentrations (in vivo; Sprague-Dawley): 5.6–8.5% | AUC0-∞ relative to sham-operated control rats (in vivo; Sprague-Dawley, iv): 2.82 fold | decrease of AUC0-∞ compared to soybean oil-treated control rats (in vivo; Sprague-Dawley, iv): 13.6% | decrease of CLr in comparison to sham-operated control rats (in vivo; Sprague-Dawley, iv): 33.3% | t1/2 relative to control rats (in vivo; Sprague-Dawley, iv): 1.41 fold | t1/2 relative to sham-operated control rats (in vivo; Sprague-Dawley, iv): 1.53 fold | Cmax (in vivo; Sprague-Dawley, iv, 25 mg/kg): 1690 ± 230 ng/mL | half-life (in vivo; Sprague-Dawley, iv, 25 mg/kg): 2.11 ± 0.42 h | AUC0-∞ relative to sham-operated control rats (in vivo; Sprague-Dawley, po): 1.88 fold | decrease of AUC0-∞ compared to soybean oil-treated control rats (in vivo; Sprague-Dawley, po): 10.4% | t1/2 relative to control rats (in vivo; Sprague-Dawley, po): 1.32 fold | t1/2 relative to sham-operated control rats (in vivo; Sprague-Dawley, po): 1.15 fold | Cmax (in vivo; Sprague-Dawley, po, 63 mg/kg): 1860 ± 210 ng/mL | half-life (in vivo; Sprague-Dawley, po, 63 mg/kg): 4.31 ± 0.52 h | Tmax (in vivo; Sprague-Dawley, po, 63 mg/kg, tmax): 2.8 ± 0.45 h | cumulative urinary excretion rate (in vivo): 3.5% | cytotoxic effects on platelet precursor cell lines (megakaryocytic cells): cytotoxic effects | accumulation in patients with renal failure [2]: accumulated | share of dosed linezolid in the urine ([2]; humans): more than 30% | detection in brain, heart, lung, liver, kidney, or small intestine tissues [3]: No PNU-142586 was detected | decrease of formation compared to normal rat hepatocytes (primary rat hepatocytes; 5/6 Nx rat hepatocytes): 28.9% | decrease of formation compared to normal rat hepatocytes (primary rat hepatocytes; hepatocytes from CCl4-induced rats): 95.6%

C[C@]12CC[C@H]3[C@@H](CCC4=CC(=O)CC[C@@]43C)[C@@H]1CC[C@@H]2O [testosterone]
substrate stability in control incubation (primary rat hepatocytes): No reductions | remaining percentage (primary rat hepatocytes): less than 2%
